In patent publication US20250275541A1, “NEMATOSTATIC COMPOSITIONS, AND USE THEREOF IN AGRICULTURE” (AGRO INNOVATION INTERNATIONAL, priority 2019, published 2025):

Columns and labels:
Meloidogyne javanica [1] = assay: Mobility of Meloidogyne javanica in the soil microcosm, different carboxylic acids (Example 3); conditions: Fluopyram 24 ppm (positive control), 5 h incubation
Method: Juvenile nematodes of M. javanica were deposited on the surface of a column of sterile soil 2 cm thick resting on a sieve (cotton wool), 1 hour before adding the test products in order to allow them time to move in the porosity of the soil. The nematodes will be distributed randomly in the layer of soil, depending on their mobility. […] The mobile nematodes pass through the column of soil and migrate naturally into the water. The nematodes passing into the water can be counted.
If the concentration of test product considered is inhibitory for the mobility of the nematodes in the presence of soil, the nematodes are kept in the column of soil and delayed in their migration into the water. The time for emergence of the nematodes from the column of soil is longer as the concentration of nematostatic product increases.
The method is identical to that described in Example 1. […]

Meloidogyne javanica [2] = assay: Mobility of Meloidogyne javanica in the soil microcosm (Example 1)
Method: The nematodes will be distributed randomly in the layer of soil, depending on their mobility. After adding the test products and incubating for 6 h, the column of soil and the sieve were placed in a tube containing water. The mobile nematodes pass through the column of soil and migrate naturally into the water. The nematodes passing into the water can be counted. If the concentration of test product considered is inhibitory for the mobility of the nematodes in the presence of soil, the nematodes are kept in the column of soil and delayed in their migration into the water. The time for emergence of the nematodes from the column of soil is longer as the concentration of nematostatic product increases.

[3] = calcium formate 780 ppm alone, or with RD2 100 or 1000 ppm, 6 h incubation, kinetics over 144 h

| Compound | nematodes that had left the microcosm of the soil after 160 hours (Meloidogyne javanica [1]) | nematodes that left the microcosm at 3 days (Meloidogyne javanica [2]; at 3 days, calcium formate 780 ppm alone, or calcium formate 780 ppm + RD2 1000 ppm) [%] | nematodes affected reversibly in their mobility (Meloidogyne javanica [2]; [3]) [%] | nematodes not affected in their mobility (Meloidogyne javanica [2]; [3]) [%] | nematodes affected irreversibly at 6 days (Meloidogyne javanica [2]; calcium formate 780 ppm alone, or with RD2 100 or 1000 ppm, at 6 days) [%] |
| --- | --- | --- | --- | --- | --- |
| O=C(NCCc1ncc(C(F)(F)F)cc1Cl)c1ccccc1C(F)(F)F [Fluopyram] | no nematode had left the microcosm | – | – | – | – |
| O=C[O-].O=C[O-].[Ca+2] [calcium formate] | – | 92 | 62 | 14 | 24 |
